Data on 17 compounds can be found in US8802704B2, “Oxadiazole derivatives” (Merck Serono SA, priority 2009, dated 2014).

Where two headings read alike, the source gives them in different places.

For assay [1], the target named is T1, S1P1 (Homo sapiens, UniProt P21453). The experiment in a line: S1P1 internalization assay in S1P1-U2OS cells (cell imaging). The format is cell-based. Conditions: U2OS cells expressing S1P1-EGFP, 1 hour. How it is done: Cellular functional assays: Internalization of Sphingosine-1-phosphate receptor 1 (S1P1) in a human Cell line (U2OS) in a 384-well format using a Cell Imaging analysis.
The S1P1 internalization assay was performed in 384 well plates (Corning® 384 black with clear bottom 3712) using S1P1-U2OS cells from Biolmage (C039A), a human epithelial cell line (Human Bone Osteosarcoma Epithelial Cells). These cells expressed the human S1P1 Receptor fused to the green fluorescent protein (EGFP). A standard CMV promoter (cytomegalovirus promoter) controls the expression of S1P1-EGFP and continuous expression was maintained by addition of geneticin to the culture medium.
S1P1Receptor desensitization induced the internalization of the membrane-localized S1P1-EGFP fusion protein to endosomes, which can be monitored by cell imaging analysis. The cells are plated in low serum medium (Dulbecco's Modified Eagle Medium (DMEM) with Glutamax-1 and high glucose, 1% Penicillin/Streptomycin, 1% Fetal Calf Serum (FCS), 0.5 mg/ml Geneticin) overnight.
The next day, S1P1-U2OS cells are incubated in 20 μl serum free medium (DMEM with Glutamax-1 and high glucose, 0.1% of fatty-acid free Bovin Serum Albumin (BSA), 10 mM, N′-2-Hydroxyethylpiperazine-N′-2 ethanesulphonic acid (HEPES) 1M) for 2 hours at 37° C./5% CO2. The cells are then treated with 4 μl compounds/agonists (6×/3% DMSO) for a total volume of 24 μl, and plates are incubated for 1 hour at 37° C./5% CO2.
S1P1-U2OS cells are fixed with 25 μl Paraformaldehyde 8% and stained with Hoechst 33345 dye (1:1000) for 20 minutes.
They were then washed 3 times with Phosphate Buffered Saline (PBS) and plates are sealed. The internalization of the receptor S1P1-EGFP is measured on Cellomics by calculating the “spot count per object” (“object” corresponds to nuclear and “spot” corresponds to S1P1-EGFP receptor). Internalization data were observed thanks to vHCS View and analyzed using Genedata® software.
Target sequence in this assay (P21453 whole entry, the tested form may be a part): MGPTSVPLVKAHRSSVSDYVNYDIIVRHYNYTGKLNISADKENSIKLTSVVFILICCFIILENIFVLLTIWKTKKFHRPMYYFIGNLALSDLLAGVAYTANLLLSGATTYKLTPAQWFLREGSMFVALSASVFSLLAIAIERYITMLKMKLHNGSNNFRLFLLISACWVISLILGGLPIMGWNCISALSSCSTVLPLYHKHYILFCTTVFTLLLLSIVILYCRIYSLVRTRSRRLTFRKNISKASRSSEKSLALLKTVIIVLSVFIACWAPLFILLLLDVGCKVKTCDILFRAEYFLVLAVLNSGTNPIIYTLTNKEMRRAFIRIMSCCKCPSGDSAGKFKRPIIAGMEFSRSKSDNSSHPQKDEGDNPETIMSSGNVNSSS

A further assay concerns the target S1P3 (Homo sapiens, UniProt Q99500). Put plainly: Receptor binding assay, [33P]sphingosine 1-phosphate competition (SPA), S1P3. How it is done:
Membranes were prepared from CHO cells expressing S1P1 or S1P3 for use in ligand and […] binding studies. Cells were suspended in 50 mM TRIS, pH 7.4, 2 mM EDTA, 250 mM Sucrose (buffer A) and 1× Complete protease inhibitor cocktail (Roche), and disrupted at 4° C. by N2 decompression using a cell disruption bomb (Parr Instrument). Following centrifugation at 1000 RPM for 10 min at 4° C., the supernatant was diluted (2×) in buffer A and centrifuged again at 19000 RPM for 75 min at 4° C. The pellet was then suspended in 10 mM HEPES, pH 7.4, 1 mM EDTA, 250 mM Sucrose (Buffer B), and 1× Complete EDTA-free protease inhibitor cocktail and homogenized using a potter. Membranes were flash frozen in liquid N2 and stored at −80° C.
[33P]sphingosine 1-phosphate (3000 Ci/mmol; American Radiolabeled Chemicals, Inc.) was added to test compounds in 20% DMSO by competition. Membranes and WGA SPA beads (GE Healthcare) were added to give a final volume of 100 μl in 96-well plates or 50 μl in 384-well plates with assay concentrations of 30 pM or 15 pM [33P]sphingosine 1-phosphate (respectively for S1P1 or S1P3), 50 mM HEPES, pH 7.5, 5 mM MgCl2, 100 mM NaCl, 0.4% fatty acid-free BSA, 1-5 μg/well of proteins in 96-well plates vs 0.6-1 μg/well of proteins in 384-well plates and 100 μg/well of WGA SPA beads in 96-well plates vs 75 μg/well of WGA SPA beads in 384-well plates. Binding was performed for 60 min at RT on a shaker and bound radioactivity was measured on a PerkinElmer 1450 MicroBeta counter. Triplicate samples were averaged and normalized as percentage of inhibition relative to total binding (only DMSO in well) and non-specific binding (1000-fold excess of unlabeled S1P). Binding data were analyzed using the GraphPad Prism program or Genedata software.

Assay [2] has as its target T1, S1P1. The experiment in a line: Receptor binding assay, [33P]sphingosine 1-phosphate competition (SPA), S1P1. Here is the method: Cells were suspended in 50 mM TRIS, pH 7.4, 2 mM EDTA, 250 mM Sucrose (buffer A) and 1× Complete protease inhibitor cocktail (Roche), and disrupted at 4° C. by N2 decompression using a cell disruption bomb (Parr Instrument). […] The pellet was then suspended in 10 mM HEPES, pH 7.4, 1 mM EDTA, 250 mM Sucrose (Buffer B), and 1× Complete EDTA-free protease inhibitor cocktail and homogenized using a potter. Membranes were flash frozen in liquid N2 and stored at −80° C.
[33P]sphingosine 1-phosphate (3000 Ci/mmol; American Radiolabeled Chemicals, Inc.) was added to test compounds in 20% DMSO by competition. […] Triplicate samples were averaged and normalized as percentage of inhibition relative to total binding (only DMSO in well) and non-specific binding (1000-fold excess of unlabeled S1P). Binding data were analyzed using the GraphPad Prism program or Genedata software.
Target sequence in this assay (P21453 whole entry, species assumed, the tested form may be a part): as the sequence (P21453 whole entry, the tested form may be a part) above

The mark [3] stands for this setting: 96 well-plate, read-out: S1P3 binding Ki (M) (96 well-plate).
[4] abbreviates: 384 well-plate, read-out: S1P3 binding Ki (M) (384 well-plate).
[5] abbreviates: 96 well-plate, read-out: S1P1 binding Ki (M) (96 well-plate).
Setting [6] is: 384 well-plate, read-out: S1P1 binding Ki (M) (384 well-plate).

Chain of S1P3 (Q99500 whole entry, species assumed): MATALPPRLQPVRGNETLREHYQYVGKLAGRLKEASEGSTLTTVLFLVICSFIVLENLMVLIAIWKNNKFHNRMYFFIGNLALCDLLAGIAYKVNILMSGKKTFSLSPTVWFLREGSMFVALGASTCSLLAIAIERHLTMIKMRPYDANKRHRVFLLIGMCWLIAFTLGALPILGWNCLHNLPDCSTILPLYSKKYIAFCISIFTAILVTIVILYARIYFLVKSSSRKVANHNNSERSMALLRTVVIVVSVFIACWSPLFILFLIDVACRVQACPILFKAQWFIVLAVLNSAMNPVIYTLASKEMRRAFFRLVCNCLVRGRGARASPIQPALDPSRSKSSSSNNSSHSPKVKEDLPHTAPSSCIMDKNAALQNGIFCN

At S1P1 [1], `COCc1cc(-c2nc(-c3cccc(CN(C)CC(=O)O)c3)no2)ccc1-c1ccccc1C(F)(F)F` [Example 49, N-(3-{5-[2-(methoxymethyl)-2′-(trifluoromethyl)biphenyl-4-yl]-1,2,4-oxadiazol-3-yl}benzyl)-N-methylglycine] came in with an EC50 of 11.3 nM. Further, the Ki on S1P3 (setting [3]) was found to be 1.5e-06 M; at S1P3 (setting [4]), 1.41e-06 M; on S1P1 [2] (setting [5]), 8.7e-10 M; at S1P1 [2] (setting [6]), 2.35e-09 M.

Consider `COCc1cc(-c2nc(-c3cccc(CN(C)CC(=O)O)c3)no2)ccc1-c1ccc(F)cc1C(F)(F)F` [Example 50, N-(3-{5-[4′-fluoro-2-(methoxymethyl)-2′-(trifluoromethyl)biphenyl-4-yl]-1,2,4-oxadiazol-3-yl}benzyl)-N-methylglycine], for which the EC50 at S1P1 [1] was found to be 25.3 nM. In addition, the Ki is 7.71e-07 M at S1P3 (setting [3]), 1.18e-06 M at S1P3 (setting [4]), 8.49e-10 M on S1P1 [2] (setting [5]) and 1.24e-08 M on S1P1 [2] (setting [6]).

For the compound `Cc1ccccc1-c1ccc(-c2nc(-c3cc(F)cc(CN(C)CC(=O)O)c3)no2)cc1C(F)(F)F` [Example 64, N-(3-fluoro-5-{5-[2′-methyl-2-(trifluoromethyl)biphenyl-4-yl]-1,2,4-oxadiazol-3-yl}benzyl)-N-methylglycine], the EC50 at S1P1 [1] was determined as 8.11 nM. Also, the figures for the Ki at S1P3 (setting [3]) and on S1P1 [2] (setting [5]) were 3.68e-08 M and 2.96e-10 M, respectively.

On S1P1 [1], `CN(CC(=O)O)Cc1cc(F)cc(-c2noc(-c3ccc(-c4ccccc4)c(C(F)(F)F)c3)n2)c1` [Example 67] came in with an EC50 of 11.9 nM. In addition, the Ki on S1P3 (setting [3]) is 3.69e-08 M; at S1P1 [2] (setting [5]), 2.31e-10 M.

In the case of `CN(CC(=O)O)Cc1cccc(-c2noc(-c3ccc(-c4ccccc4)c(C(F)(F)F)c3)n2)c1` [Example 68], the EC50 on S1P1 [1] came to 11.2 nM. The Ki on S1P3 (setting [3]) came out at 1.09e-07 M; on S1P1 [2] (setting [5]), 3.57e-10 M.

At S1P1 [1], `CCN(CCC(=O)O)Cc1cccc(-c2noc(-c3ccc(-c4ccccc4C)c(C(F)(F)F)c3)n2)c1` [Example 69, N-ethyl-N-(3-{5-[2′-methyl-2-(trifluoromethyl)biphenyl-4-yl]-1,2,4-oxadiazol-3-yl}benzyl)-beta-alanine] yielded an EC50 of 8.97 nM. For the same compound, the Ki was determined as 4.67e-08 M at S1P3 (setting [3]), 2.21e-10 M at S1P1 [2] (setting [5]) and 1.47e-09 M at S1P1 [2] (setting [6]).

`Cc1ccccc1-c1ccc(-c2nc(-c3ccc(CN(C)CCC(=O)O)c(F)c3)no2)cc1C(F)(F)F` [Example 71, N-(2-fluoro-4-{5-[2′-methyl-2-(trifluoromethyl)biphenyl-4-yl]-1,2,4-oxadiazol-3-yl}benzyl)-N-methyl-beta-alanine]: on S1P3 (setting [3]), the Ki turned out to be 1.31e-07 M.

The compound `Cc1ccccc1-c1ccc(-c2nc(-c3ccc(CN(C)CCC(=O)O)cc3)no2)cc1C(F)(F)F` [Example 72] displayed an EC50 on S1P1 [1] of 2.05 nM. In addition, the results for the Ki on S1P3 (setting [3]) and at S1P1 [2] (setting [5]) were 1.88e-07 M and 2.7e-10 M, respectively.

Compound `Cc1ccccc1-c1ccc(-c2nc(-c3ccc(CN(C)CC(=O)O)cc3)no2)cc1C(F)(F)F` [Example 81, N-methyl-N-(4-{5-[2′-methyl-2-(trifluoromethyl)biphenyl-4-yl]-1,2,4-oxadiazol-3-yl}benzyl)glycine] came in with an EC50 at S1P1 [1] of 11.4 nM. Besides, the Ki on S1P3 (setting [3]) stood at 8.31e-07 M; on S1P3 (setting [4]) it was 8.55e-07 M; at S1P1 [2] (setting [5]) it was 4.12e-10 M; on S1P1 [2] (setting [6]), 2.74e-09 M.

`CN(CC(=O)O)Cc1ccc(-c2noc(-c3ccc(-c4ccccc4F)c(C(F)(F)F)c3)n2)cc1` [Example 89, N-(4-{5-[2′-fluoro-2-(trifluoromethyl)biphenyl-4-yl]-1,2,4-oxadiazol-3-yl}benzyl)-N-methylglycine] showed an EC50 on S1P1 [1] of 6.53 nM. Besides, the Ki at S1P3 (setting [3]) worked out at 6.29e-07 M; at S1P3 (setting [4]), 5.69e-07 M; at S1P1 [2] (setting [5]), 3.49e-10 M; on S1P1 [2] (setting [6]), 1.19e-09 M.

On S1P1 [1], `COCc1cc(-c2nc(-c3ccc(CN(C)CC(=O)O)c(F)c3)no2)ccc1-c1ccccc1C(F)(F)F` [Example 95, N-(2-fluoro-4-{5-[2-(methoxymethyl)-2′-(trifluoromethyl)biphenyl-4-yl]-1,2,4-oxadiazol-3-yl}benzyl)-N-methylglycine] yielded an EC50 of 13.9 nM. For the same compound, the Ki came out at 6.5e-07 M at S1P3 (setting [3]), 1.03e-06 M on S1P3 (setting [4]), 4.26e-10 M at S1P1 [2] (setting [5]) and 3.67e-09 M on S1P1 [2] (setting [6]).

In the case of `COCc1cc(-c2nc(-c3ccc(CN(C)CC(=O)O)cc3)no2)ccc1-c1ccccc1C(F)(F)F` [Example 97, N-(4-{5-[2-(methoxymethyl)-2′-(trifluoromethyl)biphenyl-4-yl]-1,2,4-oxadiazol-3-yl}benzyl)-N-methylglycine], the EC50 at S1P1 [1] stood at 12 nM. In addition, the Ki came out at 1.57e-06 M at S1P3 (setting [3]), 2.22e-06 M on S1P3 (setting [4]) and 2.08e-09 M at S1P1 [2] (setting [6]).

On S1P1 [1], `Cc1cc(-c2nc(-c3ccc(CN(C)CC(=O)O)cc3)no2)ccc1-c1ccccc1C(F)(F)F` [Example 100, N-methyl-N-(4-{5-[2-methyl-2′-(trifluoromethyl)biphenyl-4-yl]-1,2,4-oxadiazol-3-yl}benzyl)glycine] had an EC50 of 56.1 nM. In addition, the Ki at S1P3 (setting [3]) was found to be 9.43e-06 M; on S1P3 (setting [4]), 9.67e-06 M; at S1P1 [2] (setting [5]), 1.04e-09 M; on S1P1 [2] (setting [6]) it was 3.49e-09 M.

On to `CCc1ccccc1-c1ccc(-c2nc(-c3ccc(CN(C)CC(=O)O)c(F)c3)no2)cc1C(F)(F)F` [Example 110, N-(4-{5-[2′-ethyl-2-(trifluoromethyl)biphenyl-4-yl]-1,2,4-oxadiazol-3-yl}-2-fluorobenzyl)-N-methylglycine], for which, on S1P1 [1], the EC50 was 56.7 nM. Moreover, at S1P1 [2] (setting [6]), the Ki was 6.22e-09 M.

`Cc1ccccc1-c1ccc(-c2nc(-c3ccc(Cl)c(CN(C)CC(=O)O)c3)no2)cc1C(F)(F)F` [Example 111, N-(2-chloro-5-{5-[2′-methyl-2-(trifluoromethyl)biphenyl-4-yl]-1,2,4-oxadiazol-3-yl}benzyl)-N-methylglycine] registered a half-maximal effective concentration (EC50) at S1P1 [1] of 45.9 nM. In addition, on S1P1 [2] (setting [6]), the Ki amounted to 3.68e-09 M.

Turning to `Cc1ccccc1-c1ccc(-c2nc(-c3cccc(CN(CC(=O)O)C(C)C)c3)no2)cc1C(F)(F)F` [Example 117, (Isopropyl-{3-[5-(2′-methyl-2-trifluoromethyl-biphenyl-4-yl)-[1,2,4]oxadiazol-3-yl]-benzyl}-amino)-acetic acid], at S1P1 [1], the EC50 came to 50.4 nM. For the same compound, the Ki on S1P1 [2] (setting [6]) came out at 3.24e-09 M.

Turning to `CN(CC(=O)O)Cc1ccc(-c2noc(-c3ccc(-c4ccccc4C(F)(F)F)c(Cl)c3)n2)cc1` [Example 135], the midpoint of the response on S1P1 [1], the EC50, lay at 26.1 nM. Further, the inhibitory constant (Ki) at S1P1 [2] (setting [6]) was determined as 2.63e-09 M.
